Values quoted from earlier work in patent US7217714B1, “CCR5 modulators” (Agouron Pharmaceuticals, Inc., priority 1998, dated 2007).

B1: RANTES: "a protein which is regulated upon activation and is normal T-cell expressed and secreted (RANTES)" (protein, UniProt P13501 24-91, looked up)
C-C motif chemokine 5: SPYSSDTTPCCFAYIARPLPRAHIKEYFYTSGKCSNPAVVFVTRKNRQVCANPEKKWVREYINSLEMS
B2: MIP-1α: "the macrophage inflammatory proteins (MIP) designated MIP-1α and MIP-1β" (protein, UniProt P10147 24-92, looked up)
C-C motif chemokine 3: SLAADTPTACCFSYTSRQIPQNFIADYFETSSQCSKPGVIFLTKRSRQVCADPSEEWVQKYVSDLELSA
B3: MIP-1β: "the macrophage inflammatory proteins (MIP) designated MIP-1α and MIP-1β" (protein, UniProt P13236 24-92, looked up)
C-C motif chemokine 4: APMGSDPPTACCFSYTARKLPRNFVVDYYETSSLCSQPAVVFQTKRSKQVCADPSESWVQEYVYDLELN

What was measured:
[1] = tested on: CXCR4 dependent primary and lab-adapted HIV viruses; details: susceptible cultures
CCR5-tropic strains = details: Baba et al. PNAS 1999

| Molecule | suppression of replication of primary HIV isolates (primary HIV isolates) | further results |
| --- | --- | --- |
| c1cc(CN2CCCNCCNCCCNCC2)ccc1CN1CCCNCCNCCCNCC1 [AMD3100] | – | inhibition of infection by CXCR4 dependent HIV [1]: inhibit infection |
| Cc1ccc(-c2ccc3c(c2)C=C(C(=O)Nc2ccc(C[N+](C)(C)C4CCOCC4)cc2)CCC3)cc1.[Cl-] [TAK 779] | – | block of entry of CCR5-tropic strains (CCR5-tropic strains): blocks entry |
| SDF-1: "the chemokines RANTES, MIP-1α, MIP-1β, SDF-1 have been shown to suppress replication of primary HIV isolates" | suppress replication | – |
| B1 | suppress replication | – |
| B2 | suppress replication | – |
| B3 | suppress replication | – |
